Experiments:
[1] = test system: TNFα; experiment: In vitro test procedure using PBMCs, LPS-stimulated, TNFα by ELISA; assay type: cell-based; conditions: Homo sapiens, PBMC; for inhibition at 10 µM / inhibition at 1 µM: 4 h, read-out: TNFα percentage inhibition; for inhibition at 10 µM: at 10 μmol; for inhibition at 1 µM: at 1 μmol
Method: (§1) In vitro Test Procedure Using PBMCs
(§2) The mononuclear cells (PBMCs) are isolated from human potassium-EDTA whole blood diluted 1:3 by means of density gradient centrifugation (Histopaque®-1.077). After 2 washing steps with DPBS buffer, the mononuclear cells are resuspended in macrophage-SFM medium and adjusted to a cell count of 1×10^6 cells/ml.
(§3) The PBMCs suspension (at 390 μl) is preincubated with test substance for 15 min at 37° C. in a CO2 incubator (5% CO2; 95% moisture-saturated air). The samples are subsequently stimulated for 4 hours with 1 μg/ml LPS (E.coli 026:B6) at 37° C. in a CO2 incubator (5% CO2, 95% moisture-saturated air). The reaction is ended by placing the samples on ice, addition of DPBS buffer and centrifugation (15880×g; 12 min). The supernatant is used for the quantification of IL-1β and TNFα by means of ELISA.

[2] = test system: TNFα; experiment: In vitro test procedure using human whole blood, LPS-stimulated, TNFα by ELISA; assay type: cell-based; conditions: whole-blood method; for IC50: Homo sapiens
Method: (§4) In vitro Test Procedure Using Human Whole Blood
(§5) Human potassium-EDTA whole blood (at 400 μl) is preincubated with test substance for 15 min. at 37° C. in a CO2 incubator (5% CO2; 95% moisture-saturated air). The samples are then stimulated for 4 hours with 1 μg/ml of LPS (E. coli 026:B6) at 37° C. in a CO2 incubator (5% CO2; 95% moisture-saturated air). The reaction is ended by placing the samples on ice, addition of DPBS buffer and subsequent centrifugation (1000×g; 15 min). The plasma supernatant is used for the quantification of IL-1β and TNFα by means of ELISA.

[3] = test system: IL-1β; experiment: In vitro test procedure using PBMCs, LPS-stimulated, IL-1β by ELISA; assay type: cell-based; conditions: Homo sapiens, PBMC; for inhibition at 10 µM / inhibition at 1 µM: 4 h, read-out: IL-1β percentage inhibition; for inhibition at 10 µM: at 10 μmol; for inhibition at 1 µM: at 1 μmol
Method: as §1, §2, §3

[4] = test system: IL-1β; experiment: In vitro test procedure using human whole blood, LPS-stimulated, IL-1β by ELISA; assay type: cell-based; conditions: whole-blood method; for IC50: Homo sapiens
Method: as §4, §5

[5] = molecular target: T1, 5-lipoxygenase (Homo sapiens, UniProt P09917); experiment: In vitro test system for determining the inhibition of 5-lipoxygenase (LTB4 from human granulocytes, A 23187, ELISA); assay type: cell-based; conditions: for IC50: human granulocytes, read-out: 5-LO IC50
T1 construct: Human granulocytes are used as a source of the 5-lipoxygenase; endogenous in cells; host or cells: human granulocytes isolated from heparinised blood on a Percoll gradient
T1 sequence (P09917 1-674): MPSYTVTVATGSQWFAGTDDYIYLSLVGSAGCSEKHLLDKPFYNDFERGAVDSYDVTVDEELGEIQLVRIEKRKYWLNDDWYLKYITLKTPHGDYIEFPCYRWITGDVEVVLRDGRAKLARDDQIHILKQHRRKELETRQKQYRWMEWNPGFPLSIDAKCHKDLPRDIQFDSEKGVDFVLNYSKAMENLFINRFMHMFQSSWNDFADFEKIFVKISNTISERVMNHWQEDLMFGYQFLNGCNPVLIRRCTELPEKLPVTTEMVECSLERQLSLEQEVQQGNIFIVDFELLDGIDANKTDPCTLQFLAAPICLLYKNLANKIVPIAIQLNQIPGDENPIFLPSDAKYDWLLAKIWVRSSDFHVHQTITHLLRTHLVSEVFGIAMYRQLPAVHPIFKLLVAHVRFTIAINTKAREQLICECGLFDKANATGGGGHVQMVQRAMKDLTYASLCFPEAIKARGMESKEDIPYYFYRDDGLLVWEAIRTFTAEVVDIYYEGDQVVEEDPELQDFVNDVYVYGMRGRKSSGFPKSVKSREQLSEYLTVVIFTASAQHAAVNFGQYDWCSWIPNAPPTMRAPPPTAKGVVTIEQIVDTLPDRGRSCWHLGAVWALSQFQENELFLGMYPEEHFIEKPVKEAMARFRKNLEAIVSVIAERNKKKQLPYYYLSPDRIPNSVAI
Method: In vitro Test System for Determining the Inhibition of 5-lipoxygenase
Human granulocytes are used as a source of the 5-lipoxygenase. LTB4 (leukotriene B4) is formed from endogenous arachidonic acid by means of stimulation with calcium ionophore A 23187. The granulocytes are isolated and the enzyme reaction is carried out according to known processes (see Arch. Pharm. Pharm. Med. Chem. 330, 307-312 (1997)).
The blood, which is protected from clotting with heparin, is centrifuged on a discontinuous Percoll® gradient and the granulocyte layer is pipetted off. After lysis of the erythrocytes, the granulocytes are washed a number of times and then adjusted to a specific cell count. The enzyme reaction is then started with calcium ionophore A 23187 in the presence or absence of the test substance after addition of Ca2+. The synthesis of the leukotrienes is stopped after 1.5 minutes. The samples are centrifuged off and the supernatant is diluted. LTB4 is determined quantitatively by means of ELISA.

[6] = molecular target: T2, COX2 (from sheep placenta) (Ovis aries, UniProt P79208); experiment: In vitro test system for determining the inhibition of cyclooxygenase-2 (COX2 from sheep placenta, PGE2 ELISA); assay type: biochemical; conditions: read-out: COX-2 IC50
T2 construct: COX2 (from sheep placenta) is preincubated at 4° C. with test substance for 10 min; from tissue; host or cells: sheep placenta
T2 sequence (P79208 17-603): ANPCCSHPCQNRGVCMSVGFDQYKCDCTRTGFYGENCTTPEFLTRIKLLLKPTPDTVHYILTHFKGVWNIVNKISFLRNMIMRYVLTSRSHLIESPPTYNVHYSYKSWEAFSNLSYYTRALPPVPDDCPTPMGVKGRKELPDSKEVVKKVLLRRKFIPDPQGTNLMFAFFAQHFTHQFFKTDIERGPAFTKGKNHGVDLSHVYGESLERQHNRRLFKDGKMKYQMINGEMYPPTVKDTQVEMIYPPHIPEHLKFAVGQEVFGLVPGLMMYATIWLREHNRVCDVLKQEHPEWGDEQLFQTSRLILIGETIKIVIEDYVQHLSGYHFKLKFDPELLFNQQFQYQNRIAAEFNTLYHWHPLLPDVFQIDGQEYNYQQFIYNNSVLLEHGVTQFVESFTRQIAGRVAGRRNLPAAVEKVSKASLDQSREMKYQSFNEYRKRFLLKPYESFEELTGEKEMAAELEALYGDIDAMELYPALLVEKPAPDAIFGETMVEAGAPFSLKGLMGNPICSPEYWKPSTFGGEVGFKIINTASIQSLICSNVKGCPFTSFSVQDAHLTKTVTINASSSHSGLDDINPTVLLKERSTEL
Method: In vitro Test System for Determining the Inhibition of Cyclooxygenase-2
COX2 (from sheep placenta) is preincubated at 4° C. with test substance for 10 min, then stimulated with arachidonic acid (5 μM) at 25° C. for 10 min. […] The determination is carried out at 3 dilutions (10^−7, 10^−6, 10^−5 M). The PGE2 concentrations are quantified by means of ELISA (see Mitchell J. A. et al., Proc. Nat. Acad. Sci. 90: 11693-11697 (1993)).

[7] = molecular target: T3, cyclooxygenase-1 (Homo sapiens, UniProt P23219); experiment: In vitro test system for determining the inhibition of cyclooxygenase-1 (PGE2 from human platelets, calcium ionophore, ELISA); assay type: cell-based; conditions: for COX-1 percentage inhibition: at 10 μmol; for IC50: human platelets, read-out: COX-1 IC50
T3 construct: endogenous in cells; host or cells: human platelets isolated on a discontinuous Percoll gradient
Method: In vitro Test System for Determining the Inhibition of Cyclooxygenase-1
In this test system, the amount of prostaglandin E2 formed from human platelets after addition of calcium ionophore is determined by means of ELISA. In this process, the platelets are obtained after centrifugation on a discontinuous Percoll® gradient. The enzyme reaction and the determination of the metabolites formed is carried out in principle as in the determination of 5-lipoxygenase inhibition. Differences exist with respect to the incubation time. Furthermore, the addition of a thromboxane synthesis inhibitor is necessary (see Arch. Pharm. Pharm. Med. Chem. 330, 307-312 (1997)).

T3 sequence (P23219 24-599): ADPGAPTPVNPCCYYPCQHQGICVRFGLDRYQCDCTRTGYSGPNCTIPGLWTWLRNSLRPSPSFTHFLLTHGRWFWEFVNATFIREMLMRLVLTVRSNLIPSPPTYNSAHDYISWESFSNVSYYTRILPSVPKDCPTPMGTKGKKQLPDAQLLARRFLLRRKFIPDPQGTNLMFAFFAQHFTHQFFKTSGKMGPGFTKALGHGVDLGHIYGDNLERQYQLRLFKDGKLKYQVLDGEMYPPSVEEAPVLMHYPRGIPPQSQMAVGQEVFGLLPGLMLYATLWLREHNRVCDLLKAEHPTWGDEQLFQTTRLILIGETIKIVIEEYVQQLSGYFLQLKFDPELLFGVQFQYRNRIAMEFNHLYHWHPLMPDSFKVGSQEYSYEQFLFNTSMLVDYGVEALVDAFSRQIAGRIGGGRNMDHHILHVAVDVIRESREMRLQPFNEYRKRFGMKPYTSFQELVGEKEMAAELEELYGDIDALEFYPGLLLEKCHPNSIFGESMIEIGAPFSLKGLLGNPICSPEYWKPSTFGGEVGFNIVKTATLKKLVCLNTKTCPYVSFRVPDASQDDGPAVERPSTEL

Row | SMILES | inhibition at 10 µM [1] [%] | IC50 [2] [µM] | inhibition at 10 µM [3] [%] | IC50 [4] [µM] | IC50 [5] [nM] | IC50 [1] [µM] | COX-1 percentage inhibition [7] | further results
1 | CCOC(=O)c1c(-c2ccncc2)c(-c2ccc(F)cc2)n2c1CCC2 [Example 1A, Ethyl 3-(4-fluorophenyl)-2-(4-pyridyl)-6,7-dihydro-5H-pyrrolizine-1-carboxylate] | 13 | 30 | 21 | 30 | – | – | – | –
2 | CCOC(=O)c1c(-c2ccncc2)c2n(c1-c1ccc(F)cc1)CCC2 [Example 1B, Ethyl 3-(4-fluorophenyl)-1-(4-pyridyl)-6,7-dihydro-5H-pyrrolizine-2-carboxylate] | 60 | – | – | – | 2000 | 1.4 | – | inhibition at 1 µM [1]: 12%; IC50 [3]: 1.4 µM
3 | O=C(O)c1c(-c2ccncc2)c(-c2ccc(F)cc2)n2c1CCC2 [Example 2, 3-(4-Fluorophenyl)-2-(4-pyridyl)-6,7-dihydro-5H-pyrrolizine-1-carboxylic acid] | 37 | 16 | 17 | 2.9 | – | – | – | –
4 | Fc1ccc(-c2c(-c3ccncc3)cc3n2CCC3)cc1 [Example 5, 5-(4-Fluorophenyl)-6-(4-pyridyl)-2,3-dihydro-1H-pyrrolizine] | 88 | – | – | – | 27 | 1.4 | – | IC50 [6]: 5.8 µM; inhibition at 1 µM [1]: 44%
5 | O=C(O)c1c(-c2ccncc2)c(-c2cccs2)n2c1CCC2 [Example 7, 3-(2-Thienyl)-2-(4-pyridyl)-6,7-dihydro-5H-pyrrolizine-1-carboxylic acid] | – | 48 | – | 52 | – | – | 10/40% | –
6 | CCOC(=O)c1c(-c2ccncc2)c(-c2ccc(Cl)s2)n2c1CCC2 [Example 9A, Ethyl 3-(5-chloro-2-thienyl)-2-(4-pyridyl)-6,7-dihydro-5H-pyrrolizine-1-carboxylate] | 38 | 38 | 47 | 22 | 1300 | – | 10/11% | –
7 | O=C(O)c1c(-c2ccncc2)c(-c2ccc(F)cc2)n2c1SCC2 [Example 11, 5-(4-Fluorophenyl)-6-(4-pyridyl)-2,3-dihydro-pyrrole-[2,1-b]-thiazole-7-carboxylic acid] | – | – | – | – | – | 6.8 | 10/33% | 5-LO percentage inhibition ([5]; at 10 μmol): 10/30%; TNFα percentage inhibition ([2]; at 100 μmol): 45%; IC50 [3]: 2.3 µM; IL-1β percentage inhibition ([4]; at 100 μmol): 45%
8 | OCc1c(-c2ccncc2)c(-c2ccc(F)cc2)n2c1SCC2 [Example 12, [5-(4-Fluorophenyl)-6-(4-pyridyl)-2,3-dihydro-pyrrolo-[2,1-b]-thiazol-7-yl]methanol] | 44 | 45 | – | 76 | – | – | – | IC50 [3]: 7.6 µM
9 | Cc1c(-c2ccncc2)c(-c2ccc(F)cc2)n2c1SCC2 [Example 13, 5-(4-Fluorophenyl)-7-methyl-6-pyridin-4-yl-2,3-dihydropyrrolo-[2,1-b]-thiazole] | – | 41 | 43 | 80 | 40 | 8.1 | 10/45% | –
10 | Fc1ccc(-c2c(-c3ccncc3)cc3n2CCS3)cc1 [Example 14, 5-(4-Fluorophenyl)-6-pyridin-4-yl-2,3-dihydro-pyrrolo-[2,1-b]-thiazole] | – | – | – | – | 2400 | 7.6 | – | IC50 [7]: 2300 nM; IC50 [3]: 8.5 µM
11 | Cc1c(-c2ccncc2)c(-c2ccc(F)cc2)n2c1CCCC2 [Example 17, 3-(4-Fluorophenyl)-1-methyl-2-(4-pyridyl)-5,6,7,8-tetrahydroindolizine] | – | 39 | 67 | 33 | 2200 | 4 | 10/48% | inhibition at 1 µM [3]: 0%
12 | CCOC(=O)c1c(-c2ccc(F)cc2)c(-c2ccncc2)n2c1CCC2 [Example 19A, Ethyl 2-(4-fluorophenyl)-3-(4-pyridyl)-6,7-dihydro-5H-pyrrolizine-1-carboxylate] | 60 | – | 21 | – | 2050 | – | – | IC50 [7]: 2900 nM; IC50 [6]: 5.5 µM; inhibition at 1 µM [1]: 0%; inhibition at 1 µM [3]: 0%
13 | Fc1ccc(-c2cc3n(c2-c2ccncc2)CCC3)cc1 [Example 22, 6-(4-Fluorophenyl)-5-(4-pyridyl)-2,3-dihydro-1H-pyrrolizine] | 34 | – | 59 | – | 670 | – | – | IC50 [7]: 230 nM; IC50 [6]: 1.5 µM
14 | CC1(C)COc2c(-c3ccncc3)c(-c3ccc(F)cc3)cn2C1 [Example 24, 7-(4-Fluorophenyl)-3,3-dimethyl-8-pyridin-4-yl-3,4-dihydro-2H-pyrrolo[2,1-b][1,3]-oxazine] | 42 | – | 48 | – | 1350 | – | – | IC50 [6]: 4 µM
15 | Fc1ccc(-c2c(-c3ccccc3)c3n(c2-c2ccncc2)CCC3)cc1 [Example 25] | – | – | – | – | – | 87 | – | –
